Source: the supplement of paper PMC10307832

Legend:
Assay in all cases: relative viability (nuclei count vs DMSO), 5 days (fraction); higher = more cells survive
SW 1573 = tested on: SW 1573
In short: (§1)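 For relative viability, nuclei counts in treated wells were divided by those in vehicle wells. Lung cancer cell lines had been pin-tool dosed in 1536-well plates the day after seeding and cultured for 5 days, then fixed and stained in one step (final 0.05% Triton X-100, 1% formaldehyde, 1 ug/ml Hoechst) and imaged at 4×. Doses were one drug alone or a fixed anchor-drug dose plus five library-drug doses (not always all listed) in √10 steps, and values are duplicate-plate medians.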

NCI-H2126 = tested on: NCI-H2126
In short: as §1

NCI-H647 = tested on: NCI-H647
In short: as §1

NCI-H2085 = tested on: NCI-H2085
In short: as §1

NCI-H1734 = tested on: NCI-H1734
In short: as §1

EMC-BAC-2 = tested on: EMC-BAC-2
In short: as §1

PC-14 = tested on: PC-14
In short: as §1

NCI-H2023 = tested on: NCI-H2023
In short: as §1

LXF-289 = tested on: LXF-289
In short: as §1

NCI-H1915 = tested on: NCI-H1915
In short: as §1

NCI-H1563 = tested on: NCI-H1563
In short: as §1

SK-LU-1 = tested on: SK-LU-1
In short: as §1

NCI-H661 = tested on: NCI-H661
In short: as §1

H3255 = tested on: H3255
In short: as §1

NCI-H1993 = tested on: NCI-H1993
In short: as §1

EPLC-272H = tested on: EPLC-272H
In short: as §1

NCI-H2347 = tested on: NCI-H2347
In short: as §1

HOP-62 = tested on: HOP-62
In short: as §1

NCI-H727 = tested on: NCI-H727
In short: as §1

NCI-H322M = tested on: NCI-H322M
In short: as §1

LCLC-97TM1 = tested on: LCLC-97TM1
In short: as §1

NCI-H2009 = tested on: NCI-H2009
In short: as §1

`O=c1cc(N2CCOCC2)oc2c(-c3cccc4c3sc3ccccc34)cccc12` + Cc1nc(Nc2ncc(C(=O)Nc3c(C)cccc3Cl)s2)cc(N2CCN(CCO)CC2)n1 [Dasatinib] (partner 0.075 µM) gave a relative viability (SW 1573; first compound 0.01 µM) of 0.463, a relative viability (SW 1573; first compound 0.03162 µM) of 0.482 and a relative viability (SW 1573; first compound 0.1 µM) of 0.535. For the same compound, the relative viability (SW 1573; first compound 0.3162 µM) was 0.546, the relative viability (SW 1573; first compound 1 µM) was 0.475 and the relative viability (NCI-H2126; first compound 0.01 µM) was 0.66. It also gave a relative viability (NCI-H2126; first compound 0.03162 µM) of 0.631, a relative viability (NCI-H2126; first compound 0.1 µM) of 0.609 and a relative viability (NCI-H2126; first compound 0.3162 µM) of 0.611. It also gave a relative viability (NCI-H2126; first compound 1 µM) of 0.533, a relative viability (NCI-H647; first compound 0.01 µM) of 0.239 and a relative viability (NCI-H647; first compound 0.03162 µM) of 0.18. It also gave a relative viability (NCI-H647; first compound 0.1 µM) of 0.0909, a relative viability (NCI-H647; first compound 0.3162 µM) of 0.224 and a relative viability (NCI-H647; first compound 1 µM) of 0.211. For the same compound, the relative viability (NCI-H2085; first compound 0.01 µM) was 0.267, the relative viability (NCI-H2085; first compound 0.03162 µM) was 0.241 and the relative viability (NCI-H2085; first compound 0.1 µM) was 0.253. For the same compound, the relative viability (NCI-H2085; first compound 0.3162 µM) was 0.225, the relative viability (NCI-H2085; first compound 1 µM) was 0.219 and the relative viability (NCI-H1734; first compound 0.01 µM) was 0.498. The relative viability (NCI-H1734; first compound 0.03162 µM) was 0.517, the relative viability (NCI-H1734; first compound 0.1 µM) was 0.49 and the relative viability (NCI-H1734; first compound 0.3162 µM) was 0.439. It also gave a relative viability (NCI-H1734; first compound 1 µM) of 0.415, a relative viability (EMC-BAC-2; first compound 0.01 µM) of 0.366 and a relative viability (EMC-BAC-2; first compound 0.03162 µM) of 0.32. For the same compound, the relative viability (EMC-BAC-2; first compound 0.1 µM) was 0.342, the relative viability (EMC-BAC-2; first compound 0.3162 µM) was 0.371 and the relative viability (EMC-BAC-2; first compound 1 µM) was 0.344. The relative viability (PC-14; first compound 0.01 µM) was 0.237, the relative viability (PC-14; first compound 0.03162 µM) was 0.267 and the relative viability (PC-14; first compound 0.1 µM) was 0.276. It also gave a relative viability (PC-14; first compound 0.3162 µM) of 0.257, a relative viability (PC-14; first compound 1 µM) of 0.237 and a relative viability (NCI-H2023; first compound 0.01 µM) of 0.523. It also gave a relative viability (NCI-H2023; first compound 0.03162 µM) of 0.677, a relative viability (NCI-H2023; first compound 0.1 µM) of 0.612 and a relative viability (NCI-H2023; first compound 0.3162 µM) of 0.551. The relative viability (NCI-H2023; first compound 1 µM) was 0.513, the relative viability (LXF-289; first compound 0.01 µM) was 0.239 and the relative viability (LXF-289; first compound 0.03162 µM) was 0.223. The relative viability (LXF-289; first compound 0.1 µM) was 0.187, the relative viability (LXF-289; first compound 0.3162 µM) was 0.213 and the relative viability (LXF-289; first compound 1 µM) was 0.247. It also gave a relative viability (NCI-H1915; first compound 0.01 µM) of 0.33, a relative viability (NCI-H1915; first compound 0.03162 µM) of 0.334 and a relative viability (NCI-H1915; first compound 0.1 µM) of 0.314. The relative viability (NCI-H1915; first compound 0.3162 µM) was 0.321, the relative viability (NCI-H1915; first compound 1 µM) was 0.316 and the relative viability (NCI-H1563; first compound 0.01 µM) was 0.445. For the same compound, the relative viability (NCI-H1563; first compound 0.03162 µM) was 0.451, the relative viability (NCI-H1563; first compound 0.1 µM) was 0.445 and the relative viability (NCI-H1563; first compound 0.3162 µM) was 0.51. It also gave a relative viability (NCI-H1563; first compound 1 µM) of 0.412, a relative viability (SK-LU-1; first compound 0.01 µM) of 0.173 and a relative viability (SK-LU-1; first compound 0.03162 µM) of 0.175. For the same compound, the relative viability (SK-LU-1; first compound 0.1 µM) was 0.166, the relative viability (SK-LU-1; first compound 0.3162 µM) was 0.195 and the relative viability (SK-LU-1; first compound 1 µM) was 0.181. For the same compound, the relative viability (NCI-H661; first compound 0.01 µM) was 0.764, the relative viability (NCI-H661; first compound 0.03162 µM) was 0.869 and the relative viability (NCI-H661; first compound 0.1 µM) was 0.889. It also gave a relative viability (NCI-H661; first compound 0.3162 µM) of 0.993, a relative viability (NCI-H661; first compound 1 µM) of 0.842 and a relative viability (H3255; first compound 0.01 µM) of 0.348. For the same compound, the relative viability (H3255; first compound 0.03162 µM) was 0.338, the relative viability (H3255; first compound 0.1 µM) was 0.337 and the relative viability (H3255; first compound 0.3162 µM) was 0.379. It also gave a relative viability (H3255; first compound 1 µM) of 0.345, a relative viability (NCI-H1993; first compound 0.01 µM) of 0.603 and a relative viability (NCI-H1993; first compound 0.03162 µM) of 0.595. It also gave a relative viability (NCI-H1993; first compound 0.1 µM) of 0.657, a relative viability (NCI-H1993; first compound 0.3162 µM) of 0.554 and a relative viability (NCI-H1993; first compound 1 µM) of 0.597. For the same compound, the relative viability (EPLC-272H; first compound 0.01 µM) was 0.445, the relative viability (EPLC-272H; first compound 0.03162 µM) was 0.424 and the relative viability (EPLC-272H; first compound 0.3162 µM) was 0.339. It also gave a relative viability (EPLC-272H; first compound 1 µM) of 0.263, a relative viability (NCI-H2347; first compound 0.01 µM) of 0.316 and a relative viability (NCI-H2347; first compound 0.03162 µM) of 0.284. The relative viability (NCI-H2347; first compound 0.1 µM) was 0.265, the relative viability (NCI-H2347; first compound 0.3162 µM) was 0.315 and the relative viability (NCI-H2347; first compound 1 µM) was 0.283. For the same compound, the relative viability (HOP-62; first compound 0.01 µM) was 0.676, the relative viability (HOP-62; first compound 0.03162 µM) was 0.676 and the relative viability (HOP-62; first compound 0.1 µM) was 0.672. For the same compound, the relative viability (HOP-62; first compound 0.3162 µM) was 0.639, the relative viability (HOP-62; first compound 1 µM) was 0.616 and the relative viability (NCI-H727; first compound 0.01 µM) was 0.466. For the same compound, the relative viability (NCI-H727; first compound 0.03162 µM) was 0.292, the relative viability (NCI-H727; first compound 0.1 µM) was 0.456 and the relative viability (NCI-H727; first compound 0.3162 µM) was 0.367. The relative viability (NCI-H727; first compound 1 µM) was 0.38, the relative viability (NCI-H322M; first compound 0.01 µM) was 0.231 and the relative viability (NCI-H322M; first compound 0.03162 µM) was 0.255. The relative viability (NCI-H322M; first compound 0.1 µM) was 0.292, the relative viability (NCI-H322M; first compound 0.3162 µM) was 0.252 and the relative viability (NCI-H322M; first compound 1 µM) was 0.224. For the same compound, the relative viability (LCLC-97TM1; first compound 0.01 µM) was 0.904, the relative viability (LCLC-97TM1; first compound 0.03162 µM) was 0.86 and the relative viability (LCLC-97TM1; first compound 0.1 µM) was 0.788. The relative viability (LCLC-97TM1; first compound 0.3162 µM) was 0.917, the relative viability (LCLC-97TM1; first compound 1 µM) was 0.898 and the relative viability (NCI-H2009; first compound 0.01 µM) was 0.317. The relative viability (NCI-H2009; first compound 0.03162 µM) was 0.268, the relative viability (NCI-H2009; first compound 0.1 µM) was 0.303 and the relative viability (NCI-H2009; first compound 0.3162 µM) was 0.277. It also gave a relative viability (NCI-H2009; first compound 1 µM) of 0.256.
